Where no end group is shown, it is not given here.
Legend:
[1] = molecular target: T1, JAK3 (Homo sapiens, UniProt P52333); assay: In vitro kinase assay JAK3; assay type: biochemical; details: ten times higher concentration than 0.1 μM
T1 construct: endogenous in cells
T1 sequence (P52333 1-1124): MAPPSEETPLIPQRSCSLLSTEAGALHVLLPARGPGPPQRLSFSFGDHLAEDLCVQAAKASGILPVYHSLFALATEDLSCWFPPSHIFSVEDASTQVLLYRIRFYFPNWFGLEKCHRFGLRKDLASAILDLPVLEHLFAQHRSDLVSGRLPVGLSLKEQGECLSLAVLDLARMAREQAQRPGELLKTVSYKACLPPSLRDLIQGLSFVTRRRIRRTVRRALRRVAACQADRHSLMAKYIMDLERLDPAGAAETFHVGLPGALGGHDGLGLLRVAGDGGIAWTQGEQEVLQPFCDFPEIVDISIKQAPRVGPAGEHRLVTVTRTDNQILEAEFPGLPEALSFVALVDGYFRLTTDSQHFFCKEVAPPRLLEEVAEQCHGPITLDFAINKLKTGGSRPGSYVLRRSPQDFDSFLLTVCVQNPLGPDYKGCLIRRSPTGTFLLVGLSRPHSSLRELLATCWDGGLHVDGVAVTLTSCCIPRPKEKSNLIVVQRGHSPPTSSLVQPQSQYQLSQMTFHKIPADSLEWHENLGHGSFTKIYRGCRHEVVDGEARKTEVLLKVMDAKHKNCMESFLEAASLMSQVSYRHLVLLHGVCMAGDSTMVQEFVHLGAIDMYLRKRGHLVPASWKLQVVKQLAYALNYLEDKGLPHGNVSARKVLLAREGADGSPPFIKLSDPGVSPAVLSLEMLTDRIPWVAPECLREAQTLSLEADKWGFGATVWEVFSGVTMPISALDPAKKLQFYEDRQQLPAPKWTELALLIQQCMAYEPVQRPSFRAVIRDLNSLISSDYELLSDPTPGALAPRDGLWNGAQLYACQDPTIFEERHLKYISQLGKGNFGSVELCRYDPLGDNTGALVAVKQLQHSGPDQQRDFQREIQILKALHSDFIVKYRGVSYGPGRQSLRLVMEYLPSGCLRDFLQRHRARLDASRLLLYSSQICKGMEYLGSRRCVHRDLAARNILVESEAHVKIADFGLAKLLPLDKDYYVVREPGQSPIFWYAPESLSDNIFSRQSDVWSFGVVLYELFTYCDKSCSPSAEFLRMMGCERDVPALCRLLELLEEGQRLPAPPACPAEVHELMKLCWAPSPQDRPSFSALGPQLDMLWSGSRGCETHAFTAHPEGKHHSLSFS
Method: As a specific substrate, the phosphorylation level of GSK-3[…] at Ser-9 was also evaluated. […] The decrease was specific to the AKT phosphorylation site on GSK-3[…] at Ser-9, since a change in the phosphorylation level of GSK-3[…] at Tyr-216 or GSK-3[…] at Tyr-279 was not observed. Moreover, the in vivo reduction of the phosphorylation of AKT substrates was more obvious at the injection site, since a significant change in the phosphorylation of AKT substrates in the frontal cortex or cerebellum between the two hemispheres was not observed. […] To test the specificity/selectivity of ZaTa as the inhibitor of AKT1 versus the other major kinases, a series of in vitro kinase assays was performed at IC50 for AKT1 and at ten times higher concentrations. A panel of the following 32 kinases was first tested in vitro using the active form of each kinase and a specific substrate: AKT2, AKT3, PKA, PKC[…], PKC, PI3K[…], PI3K[…], PI3K, SGK, PAK2, PAK3, SAPK2/p38, Abl, CaMKII, CDK1/cyclinB, CDK5/p35, CK1, CK2, CSK, GSK3[…], GSK3[…], JNK1[…]1, MAPK1, p70S6K, PDGFR[…], PDGFR[…], PDK1, PKG1[…], TrkB, JAK2, JAK3, and Syk. […] However, at ten times higher concentration, ZaTa inhibited AKT2 (63%), PI3K[…] (72%), p70S6K (64%), SGK (73%), PAK3 (83%), JAK3 (79%), TrkB (84%), and Abl (42%). […]

[2] = test system: AKT; assay: Cell penetration and co-localization of fluorescently labeled ZaTa with AKT; assay type: cell-based; details: immunofluorescence
Excerpt: Peptides can be very effective inhibitors since they efficiently bind to and inhibit enzymatic activity. However, intracellular delivery of peptides can limit their use. With the exception of a few peptides known as cell-penetrating peptides (CPPs), which have been recognized for their use in site-specific drug delivery, inhibitory peptides can have limited intracellular accumulation in in vivo enzymatic studies. […] Based on the primary structure of the ZaTa peptide (i.e., a peptide having a basic arm of several basic residues at the N-terminus and a polar arm composed of several residues with free hydroxyl group at the C-terminus) and in vivo inhibitory effect in the brain, it was determined whether ZaTa peptide was a CPP. The ZaTa peptide was labeled with a red fluorescent dye at its N-terminus given that its C-terminus was important for inhibitory activity. The efficiency of the labeling and the purity of the labeled peptide were assessed by mass spectrometry.
These different localization patterns of ZaTa within the cell were usually accompanied with redistribution of AKT to the site of ZaTa.
Cell cultures were analyzed by growing cells (1×10^4) on coverslips, fixation for 10 minutes in phosphate-buffered saline (PBS) plus 3.7% formaldehyde, and permeabilization for 2 minutes with cold acetone. […]

AKRVKGRTWTLCGTPEY [ZaTa]
inhibition of JAK3 [1]: 79% | phosphorylation level of AKT substrates in cells entered by ZaTa [2]: decrease in the phosphorylation level of AKT substrates

Source: patent US8541670B2, “Compositions and methods for inhibiting tumor cell growth” (priority 2007, dated 2013)
